For assay [1], the target named is T1, DNA topoisomerase 1 (Homo sapiens) (UniProt P11387).
T1 sequence (whole entry): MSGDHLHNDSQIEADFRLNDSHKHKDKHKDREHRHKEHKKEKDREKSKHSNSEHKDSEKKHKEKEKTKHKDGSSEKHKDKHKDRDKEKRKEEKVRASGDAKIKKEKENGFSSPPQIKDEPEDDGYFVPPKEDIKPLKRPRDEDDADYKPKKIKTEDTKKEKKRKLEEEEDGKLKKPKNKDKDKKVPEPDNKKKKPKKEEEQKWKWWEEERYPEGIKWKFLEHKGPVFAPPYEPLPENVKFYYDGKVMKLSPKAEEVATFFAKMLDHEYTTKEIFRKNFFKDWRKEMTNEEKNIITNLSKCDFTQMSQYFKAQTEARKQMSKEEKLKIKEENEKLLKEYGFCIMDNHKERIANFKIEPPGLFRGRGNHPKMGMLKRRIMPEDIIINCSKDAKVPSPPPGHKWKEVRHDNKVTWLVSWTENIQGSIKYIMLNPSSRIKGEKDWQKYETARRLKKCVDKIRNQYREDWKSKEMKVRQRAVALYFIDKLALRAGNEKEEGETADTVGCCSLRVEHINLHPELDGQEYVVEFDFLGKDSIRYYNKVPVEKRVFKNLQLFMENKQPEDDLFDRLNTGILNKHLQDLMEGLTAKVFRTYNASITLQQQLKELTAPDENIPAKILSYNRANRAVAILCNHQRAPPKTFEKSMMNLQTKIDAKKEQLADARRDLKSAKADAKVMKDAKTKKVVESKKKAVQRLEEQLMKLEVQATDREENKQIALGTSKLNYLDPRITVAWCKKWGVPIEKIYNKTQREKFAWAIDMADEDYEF
Description: Inhibition of recombinant Top1 (unknown origin) assessed as inhibition of relaxation of supercoiled pBR322 plasmid DNA at 100 uM incubated for 15 mins by ethidium bromide staining based agarose gel electrophoresis analysis.

Assay [2] deals with T1, DNA topoisomerase 1 (Homo sapiens). Put plainly: Inhibition of recombinant Top1 (unknown origin) assessed as inhibition of relaxation of supercoiled pBR322 plasmid DNA at 50 uM incubated for 15 mins by ethidium bromide staining based agarose gel electrophoresis analysis.
Assay [3] deals with K562. Put plainly: Antiproliferative activity against human K562 cells assessed as cell growth inhibition incubated for 8 hrs by CCK8 assay. To be noted: K562, 8 h. In kind it is functional, cell-based. On the technique in general: Tetrazolium dyes change colour on reduction, which living cells bring about.
Assay [4] deals with HepG2. Put plainly: Antiproliferative activity against human HepG2 cells assessed as cell growth inhibition incubated for 8 hrs by CCK8 assay. In kind it is functional, cell-based. To be noted: HepG2, 8 h.
Assay [5] concerns the target DNA topoisomerase 2-alpha (Homo sapiens) (UniProt P11388). Description: Inhibition of recombinant Top2 (unknown origin) assessed as inhibition of relaxation of supercoiled pBR322 plasmid DNA at 50 uM incubated for 15 mins by ethidium bromide staining based agarose gel electrophoresis analysis.
Assay [6] deals with Histone deacetylase 2 (Homo sapiens, UniProt Q92769). Put plainly: Inhibition of HDAC2 in HEL cells assessed as increase in acetyl-H4 levels at 20 to 100 nM incubated for 24 hrs by western blot analysis. In kind it is cell-based. To be noted: dose 20-100 nM. For orientation: In western blotting, separated proteins are transferred to a membrane and probed.
In assay [7] the target is Histone deacetylase 3 (Homo sapiens, UniProt O15379). Put plainly: Inhibition of recombinant His-tagged human HDAC3 expressed in baculovirus infected insect cells using Ac-Leu-Gly-Lys(Ac)-AMC as substrate preincubated for 5 mins followed by substrate addition and further incubated for 30 mins by fluorescence based microtiter plate reader assay.
For assay [8], the target named is T2, Histone deacetylase 8 (Homo sapiens, UniProt Q9BY41).
T2 sequence (Q9BY41 whole entry): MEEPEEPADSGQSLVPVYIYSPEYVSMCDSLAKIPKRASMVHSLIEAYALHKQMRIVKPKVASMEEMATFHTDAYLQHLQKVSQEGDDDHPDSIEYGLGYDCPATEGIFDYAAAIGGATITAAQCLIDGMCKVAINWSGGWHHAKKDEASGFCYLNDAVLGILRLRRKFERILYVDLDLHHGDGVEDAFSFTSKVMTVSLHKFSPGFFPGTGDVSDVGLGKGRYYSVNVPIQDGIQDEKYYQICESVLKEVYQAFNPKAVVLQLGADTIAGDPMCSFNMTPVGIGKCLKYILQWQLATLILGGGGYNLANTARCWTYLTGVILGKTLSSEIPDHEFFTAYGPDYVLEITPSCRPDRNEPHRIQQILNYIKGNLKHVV
Put plainly: Inhibition of full-length recombinant C-terminal His-tagged human HDAC8 expressed in baculovirus infected Sf9 insect cells using Ac-Leu-Gly-Lys(Tfa)-AMC as substrate preincubated for 5 mins followed by substrate addition and further incubated for 30 mins by fluorescence based microtiter plate reader assay.

For assay [9], the system named is HCT-116. Put plainly: Antiproliferative activity against human HCT-116 cells assessed as cell growth inhibition incubated for 8 hrs by CCK8 assay. In kind it is functional, cell-based. The settings on record: HCT-116, 8 h.
Assay [10] deals with Histone deacetylase 1 (Homo sapiens, UniProt Q13547). Put plainly: Inhibition of HDAC1 in HEL cells assessed as increase in acetyl-H3 levels at 20 to 100 nM incubated for 24 hrs by western blot analysis. In kind it is cell-based. The settings on record: dose 20-100 nM.

The source made the active and inactive calls. The calls are words filed in the database; no cut-off is given here. Bounds are passed on as bounds.

Sequence of Histone deacetylase 2 (Q92769 whole entry): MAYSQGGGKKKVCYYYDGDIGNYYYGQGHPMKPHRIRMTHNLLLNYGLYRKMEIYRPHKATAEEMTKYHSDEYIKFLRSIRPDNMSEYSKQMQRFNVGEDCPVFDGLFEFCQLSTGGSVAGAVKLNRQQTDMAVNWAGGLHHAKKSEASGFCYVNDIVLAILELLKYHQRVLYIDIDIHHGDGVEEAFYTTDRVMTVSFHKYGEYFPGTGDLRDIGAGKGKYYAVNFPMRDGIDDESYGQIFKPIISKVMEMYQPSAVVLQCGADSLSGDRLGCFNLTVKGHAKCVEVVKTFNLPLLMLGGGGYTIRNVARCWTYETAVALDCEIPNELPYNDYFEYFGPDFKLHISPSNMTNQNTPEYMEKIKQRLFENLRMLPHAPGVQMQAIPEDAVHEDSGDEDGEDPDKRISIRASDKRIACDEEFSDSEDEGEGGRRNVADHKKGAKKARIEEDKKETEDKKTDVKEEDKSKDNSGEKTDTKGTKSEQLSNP
Sequence of Histone deacetylase 1 (Q13547 whole entry): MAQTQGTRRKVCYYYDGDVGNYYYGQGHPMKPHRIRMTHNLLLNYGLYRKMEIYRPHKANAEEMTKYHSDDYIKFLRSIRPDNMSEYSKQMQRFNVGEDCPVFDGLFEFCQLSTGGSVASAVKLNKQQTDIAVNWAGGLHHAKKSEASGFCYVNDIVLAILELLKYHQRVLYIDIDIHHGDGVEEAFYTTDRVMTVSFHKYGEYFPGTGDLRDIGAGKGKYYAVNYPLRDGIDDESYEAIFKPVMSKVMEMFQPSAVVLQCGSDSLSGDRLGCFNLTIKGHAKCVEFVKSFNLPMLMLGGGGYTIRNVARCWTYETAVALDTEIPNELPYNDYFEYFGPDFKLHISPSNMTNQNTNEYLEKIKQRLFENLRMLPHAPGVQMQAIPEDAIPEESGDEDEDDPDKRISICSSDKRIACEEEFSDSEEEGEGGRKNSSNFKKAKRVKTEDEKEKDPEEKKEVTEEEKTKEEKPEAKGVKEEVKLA
Sequence of DNA topoisomerase 2-alpha (Homo sapiens) (P11388 whole entry): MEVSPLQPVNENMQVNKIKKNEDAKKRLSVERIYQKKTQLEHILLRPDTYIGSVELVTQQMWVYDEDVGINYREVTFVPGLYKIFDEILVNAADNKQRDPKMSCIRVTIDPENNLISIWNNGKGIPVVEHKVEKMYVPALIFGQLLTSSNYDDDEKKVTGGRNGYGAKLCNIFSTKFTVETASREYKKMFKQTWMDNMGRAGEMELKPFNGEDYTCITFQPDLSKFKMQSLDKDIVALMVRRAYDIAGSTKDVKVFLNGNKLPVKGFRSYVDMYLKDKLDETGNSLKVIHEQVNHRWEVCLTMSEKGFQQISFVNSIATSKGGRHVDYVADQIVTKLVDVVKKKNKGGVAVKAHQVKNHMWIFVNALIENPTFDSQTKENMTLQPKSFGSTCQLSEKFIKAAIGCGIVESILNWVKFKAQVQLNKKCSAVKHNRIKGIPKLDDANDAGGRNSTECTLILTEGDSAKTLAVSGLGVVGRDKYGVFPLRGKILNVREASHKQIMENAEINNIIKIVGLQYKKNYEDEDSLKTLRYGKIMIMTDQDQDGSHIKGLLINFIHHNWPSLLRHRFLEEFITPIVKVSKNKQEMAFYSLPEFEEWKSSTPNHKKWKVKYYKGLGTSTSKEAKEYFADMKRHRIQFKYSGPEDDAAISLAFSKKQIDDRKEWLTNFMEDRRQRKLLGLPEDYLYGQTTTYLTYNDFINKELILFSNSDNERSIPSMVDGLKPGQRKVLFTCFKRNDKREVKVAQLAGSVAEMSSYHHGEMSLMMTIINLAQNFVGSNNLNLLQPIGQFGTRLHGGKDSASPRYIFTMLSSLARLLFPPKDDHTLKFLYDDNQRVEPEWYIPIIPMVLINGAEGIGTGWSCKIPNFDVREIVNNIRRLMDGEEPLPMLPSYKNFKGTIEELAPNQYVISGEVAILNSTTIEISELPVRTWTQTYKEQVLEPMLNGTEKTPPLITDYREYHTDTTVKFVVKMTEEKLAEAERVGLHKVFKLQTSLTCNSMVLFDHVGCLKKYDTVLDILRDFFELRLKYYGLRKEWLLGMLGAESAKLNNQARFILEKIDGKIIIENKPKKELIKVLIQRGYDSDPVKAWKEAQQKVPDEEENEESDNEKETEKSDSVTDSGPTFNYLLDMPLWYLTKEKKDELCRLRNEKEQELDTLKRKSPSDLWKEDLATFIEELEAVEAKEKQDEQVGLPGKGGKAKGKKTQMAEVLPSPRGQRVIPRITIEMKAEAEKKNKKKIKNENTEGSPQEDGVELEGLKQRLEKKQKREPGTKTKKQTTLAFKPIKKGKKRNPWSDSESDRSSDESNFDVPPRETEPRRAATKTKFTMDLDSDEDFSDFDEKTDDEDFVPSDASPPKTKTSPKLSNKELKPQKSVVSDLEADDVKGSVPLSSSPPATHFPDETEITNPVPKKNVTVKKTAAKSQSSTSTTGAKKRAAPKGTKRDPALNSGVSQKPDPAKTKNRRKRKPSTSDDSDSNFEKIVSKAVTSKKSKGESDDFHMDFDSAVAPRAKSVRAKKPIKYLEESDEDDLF
Sequence of Histone deacetylase 3 (O15379 whole entry): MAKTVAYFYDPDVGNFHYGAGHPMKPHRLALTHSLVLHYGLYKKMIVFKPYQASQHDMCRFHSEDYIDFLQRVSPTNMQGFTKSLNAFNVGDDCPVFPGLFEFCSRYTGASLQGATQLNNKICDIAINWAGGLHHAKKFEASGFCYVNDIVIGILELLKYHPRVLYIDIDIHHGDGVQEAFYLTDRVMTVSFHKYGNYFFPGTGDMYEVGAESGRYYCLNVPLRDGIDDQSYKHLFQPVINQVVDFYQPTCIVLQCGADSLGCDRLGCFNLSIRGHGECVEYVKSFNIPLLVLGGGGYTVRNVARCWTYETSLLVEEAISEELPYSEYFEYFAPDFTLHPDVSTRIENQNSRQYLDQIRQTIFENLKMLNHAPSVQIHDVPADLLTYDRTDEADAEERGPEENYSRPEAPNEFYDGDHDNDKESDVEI

`CN1c2ccc(F)cc2C(=O)N2CCc3c([nH]c4ccc(OCc5ccc(/C=C/C(=O)NO)cc5)cc34)C21` (stereo not given): the inhibition result in assay [1], in [2], in assay [5], in assay [6] and in assay [10] was “Active” each time. Moreover, the IC50 in assay [3] is 350 nM; in assay [4], 260 nM; in assay [7], 59 nM; in assay [8], 9800 nM; in [9], 210 nM.
Turning to `CN1c2ccc(F)cc2C(=O)N2CCc3c([nH]c4ccc(OCc5ccc(/C=C/C(=O)Nc6ccccc6N)cc5)cc34)C21` (stereo not given), the inhibition result in assay [1], in assay [2], in assay [5], in assay [6] and in [10] was “Active” in each case. Further, the IC50 in assay [3] is 120 nM; in assay [4] it was 290 nM; in assay [7] it was 15000 nM; in assay [8], 690 nM; in [9] it was greater than 2000 nM.

As a reminder, the IC50 is the concentration that inhibits the measured activity by half.

(Values after ChEMBL document CHEMBL5046291, “Evodiamine-Inspired Topoisomerase-Histone Deacetylase Dual Inhibitors: Novel Orally Active Antitumor Agents for Leukemia Therapy” (J Med Chem, 2022).)
